Assays:
[1] = system: RNAs of FIG. 2 (SEQ ID NOs: 1 through 3), with or without bulge structure; test: Evaluation of binding between xanthone fluorescent molecule and RNA (fluorescence before and after mixing RNA); conditions: 10 μM compound, 30 μM RNA (A, U, C, G bulge or no bulge), cacodylate buffer pH 7.0, NaCl 100 mM
Experimental: Next, binding between X2S and RNAs was evaluated. The RNAs used in the present example had the structure illustrated in FIG. 2. FIG. 2 is a diagram schematically illustrating the structure of the RNAs used in the present example. The RNAs used in the present example had sequences shown in SEQ ID NOs: 1 through 3.
The symbol N in FIG. 2 represents either a base out of A, U, C, and G, or no base. Thus, in a case where a particular RNA as in FIG. 2 has N representing a base out of A, U, C, and G, the RNA is an RNA formed by hybridization of an RNA having the base sequence shown in SEQ ID NO: 1 with a single strand RNA having the base sequence shown in SEQ ID NO: 2. On the other hand, in a case where a particular RNA as in FIG. 2 has N representing no base, the RNA is an RNA formed by hybridization of an RNA having the base sequence shown in SEQ ID NO: 1 with an RNA having the base sequence shown in SEQ ID NO: 3.
This also applies to other bases. The RNAs used in the present example were purchased from Hokkaido System Science Co., Ltd.
Firstly, X2S was mixed in a cacodylate buffer solution (sodium cacodylate: 10 mM, pH 7.0; NaCl: 100 mM) at 10 μM, so that an X2S solution was obtained. The X2S solution was irradiated with light having an absorption maximum of 371±3 nm, and a fluorescence intensity was then measured. The fluorescence intensity was measured with use of a device (product number: RF-5300PC) available from Shimadzu Corporation. For each type of the RNAs, the fluorescence intensity was measured after the RNA was mixed in the X2S solution at 30 μM.
FIGS. 3 and 4 compare the fluorescence intensities measured before and after the RNA was mixed. […] The horizontal axis represents the fluorescence wavelength, whereas the vertical axis represents the fluorescence intensity. FIG. 4 is an enlarged graph corresponding to the fluorescence intensity of 5 A.U. in FIG. 3 and its vicinity.
Binding between X1S and RNAs was evaluated by a method identical to the method described in Example 2, except that X1S was used instead of X2S. […]

RRE = test: Fluorescence titration / evaluation of binding with RRE; set-up: species or system HIV-1
Experimental: In this Example, binding between RRE and X2S was evaluated by a method identical to the method in Example 2.
The […] of RRE is shown in SEQ ID NO: 8. […] RRE was purchased from Hokkaido System Science Co., Ltd.
Firstly, the X2S solution obtained in Example 1 was diluted with a cacodylate buffer solution (sodium cacodylate: 10 mM, pH 7.0; NaCl: 100 mM), so that a concentration of X2S became 2 μM. To the 2-μM X2S solution thus obtained, RRE was added in steps at 0 μM, 1 μM, 2 μM, 3 μM, 4 μM, 5 μM, 6 μM, and 8 μM. Further, a fluorescence intensity of the 2-μM X2S solution was measured at each concentration. The fluorescence intensity was measured in the same manner as in Example 2.
FIG. 7 is a view illustrating a result of evaluation of binding between X2S and RRE. In FIG. 7, the horizontal axis represents the fluorescence wavelength, whereas the vertical axis represents the fluorescence intensity. […] Other figures include such arrows for results of measurements of fluorescence intensities.
FIG. 8 is a view plotting the fluorescence intensities at a measured wavelength of 453 nm shown in the result illustrated in FIG. 7. The horizontal axis represents the concentration of RRE, whereas the vertical axis represents the fluorescence intensity.
Then, changes in fluorescence intensities were observed.
Firstly, X2S, X2S(3), X2S(4), X2S(5), X2S(2-Me), and 3,6-X2S(2) were respectively mixed with cacodylate buffer solutions (sodium cacodylate: 10 mM, pH 7.0; NaCl: 100 mM) each at 1.0 μM, so that solutions of the respective compounds were obtained. RRE used in this Example was the same as that used in Example 4. RRE was added to each of the solutions of the respective compounds in steps at 0.0 μM, 0.2 μM, 0.4 μM, 0.8 μM, and 1.0 μM.
Each of the solutions to which RRE was added was irradiated with light, and a fluorescence intensity was measured. A device used for measuring the fluorescence intensity was the same as that used in Example 13. A variation in a slit width was also the same as that in Example 14.
FIG. 39 is a graph illustrating a relationship between a concentration of RRE added and a fluorescence intensity of each compound. Further, FIG. 39 is also a view plotting the fluorescence intensities of the respective fluorescence peaks shown in the results illustrated in FIGS. 33 to 38. FIG. 40 is a view plotting residual fluorescence intensities (%) which were obtained based on the results shown in FIGS. 33 to 38, assuming that the fluorescence intensities of the respective fluorescence peaks observed at a concentration of 0.0 μM of RRE were 100%. In each of FIGS. 39 and 40, the horizontal axis represents the concentration of the RNA. In FIG. 39, the vertical axis represents the fluorescence intensity. In FIG. 40, the vertical axis represents the residual fluorescence intensity (%).
FIG. 41 is a view plotting values obtained by dividing (i) the residual fluorescence intensities (%) obtained in the case involving use of the double strand RNA by (ii) the residual fluorescence intensities (%) obtained in the case involving use of RRE. That is, FIG. 41 is a view plotting values obtained by dividing (i) the residual fluorescence intensity (%) shown in FIG. 32 by (ii) the residual fluorescence intensities (%) shown in FIG. 40. FIG. 42 is a view plotting values obtained by subtracting (i) the residual fluorescence intensities (%) obtained in the case involving use of RRE from (ii) the residual fluorescence intensities (%) obtained in the case involving use of the double strand RNA. That is, FIG. 42 is a view plotting values obtained by subtracting (i) the residual fluorescence intensities (%) shown in FIG. 40 from (ii) the residual fluorescence intensities (%) shown in FIG. 32.
In this Example, 1-Pyrenemethanamide, hydrochloride was caused to bind to a double strand RNA or RRE. Then, a change in a fluorescence intensity was observed. […]

NCCOc1ccc2oc3ccc(OCCN)cc3c(=O)c2c1 [X2S, 2,7-bis(2-aminoethoxy)xanthen-9-one]
binding to RNAs [1]: capable of binding to RNAs having various structures | reduction of fluorescence intensity (residual fluorescence intensity) on binding RRE (RRE; 1.0 μM compound, RRE 0.0-1.0 μM): particularly high reduction rates | fluorescence of X2S on binding to RRE (RRE; 2 μM X2S, RRE 0-8 μM, 453 nm): fluorescence of X2S is quenched | difference in quenching efficiency between RRE and double strand RNA (RRE; FIGS. 41 and 42, 1.0 μM compound): greatest

— patent US8741659B2, “Composition for measuring the binding affinity between nucleic acid and test substance, and use thereof” (Osaka University, priority 2007, dated 2014)
